# In ChEMBL document CHEMBL4825757, “Optimization of 4,6-Disubstituted Pyrido[3,2-d]pyrimidines as Dual MNK/PIM Inhibitors to Inhibit Leukemia Cell Growth” (J Med Chem, 2021):
# Activity calls are given as the source filed them. The rule behind the calls is not given here.
# Columns and labels:
# [1] = Toxicity in NOD/SCID mouse xenografted with human MOLM-13 cells assessed as abnormal changes in kidney at 5 to 10 mg/kg, ip daily for 2 weeks by hematoxylin-eosin staining based histological analysis; type: organism-based; settings: in vivo, 336 h, dose 5-10 mg/kg
# [2] = molecular target: Serine/threonine-protein kinase pim-3 (Homo sapiens, UniProt Q86V86); assay: Inhibition of recombinant human Pim3 (2 to end residues) using RSRHSSYPAGT as substrate incubated for 40 mins in presence of [gamma33P]ATP by scintillation counting based radiometry assay
# [3] = Toxicity in NOD/SCID mouse xenografted with human MOLM-13 cells assessed as decrease in body weight at 5 to 10 mg/kg, ip daily for 2 weeks; type: organism-based; settings: in vivo, 336 h, dose 5-10 mg/kg
# MOLM-13 [4] = assay: Induction of apoptosis in human MOLM-13 cells assessed as late apoptotic cells at 2 uM incubated for 12 hrs by annexin-V and propidium iodide staining based flow cytometry analysis (reference value: 3.03%); type: functional
# MOLM-13 [5] = assay: Induction of apoptosis in human MOLM-13 cells assessed as late apoptotic cells at 1 uM incubated for 12 hrs by annexin-V and propidium iodide staining based flow cytometry analysis (reference value: 3.03%); type: functional
# [6] = molecular target: T1, MAP kinase-interacting serine/threonine-protein kinase 1 (Homo sapiens, UniProt Q9BUB5); assay: Inhibition of wild type human full length MKN1 (M1 to L424) expressed in mammalian expression system at 1 uM by Kinomescan method relative to control
# [7] = Tmax in Sprague Dawley rat at 10 mg/kg, po measured after 24 hrs; type: ADME, organism-based; settings: in vivo
# [8] = molecular target: MAP kinase-interacting serine/threonine-protein kinase 1/2 (Homo sapiens) (UniProt Q9HBH9+Q9BUB5); assay: Inhibition of MNK1/MNK2 in human MOLM-13 cells assessed as reduction in eIF4E phosphorylation at 1 to 2 uM incubated for 12 hrs by western blot analysis; type: cell-based; settings: dose 1-2 µM
# [9] = AUC (0 to t) in Sprague Dawley rat at 2 mg/kg, iv measured after 24 hrs; type: ADME, organism-based; parameters: route intravenous, time 24 hrs, dose 2 mg/kg; settings: in vivo
# [10] = molecular target: T2, Serine/threonine-protein kinase pim-1 (Homo sapiens, UniProt P11309); assay: Inhibition of full length recombinant human PIM1 using KKRNRTLTV as substrate incubated for 40 mins in presence of [gamma33P]ATP by scintillation counting based radiometry assay
# [11] = molecular target: T2, Serine/threonine-protein kinase pim-1; assay: Inhibition of wild-type human partial length PIM1 (A15 to K313 residues) expressed in bacterial expression system at 1 uM by Kinomescan method relative to control
# [12] = molecular target: MAP kinase-interacting serine/threonine-protein kinase 2 (Homo sapiens, UniProt Q9HBH9); assay: Inhibition of MKN2 (unknown origin) in presence of ATP by HTRF assay
# [13] = molecular target: Serine/threonine-protein kinase PIM (Homo sapiens) (UniProt P11309+Q9P1W9+Q86V86); assay: Inhibition of PIM in human MOLM-13 cells assessed as reduction in phosphorylated 4EBP1 at 1 to 2 uM incubated for 12 hrs by western blot analysis; type: cell-based; settings: dose 1-2 µM
# [14] = molecular target: Epidermal growth factor receptor (Homo sapiens, UniProt P00533); assay: Inhibition of recombinant human EGFR (696 to end residues) using poly(Glu, Tyr) 4:1 as substrate after 40 mins in presence of [gamma-33ATP] by radiometric scintillation counting analysis
# MOLM-13 [15] = assay: Antitumor activity against human MOLM-13 cells xenografted in NOD/SCID mouse assessed as decrease in eIF4E phosphorylation at 10 mg/kg, ip daily for 2 weeks by western blot analysis; type: functional, organism-based
# [16] = molecular target: Receptor tyrosine-protein kinase erbB-2 (Homo sapiens, UniProt P04626); assay: Inhibition of wild-type human partial length ERBB2 (K646 to V1225 residues) expressed in mammalian expression system at 1 uM by Kinomescan method relative to control
# [17] = Half life in Sprague Dawley rat at 2 mg/kg, iv measured after 24 hrs; type: ADME, organism-based; settings: in vivo
# [18] = Intrinsic clearance in human liver microsomes preincubated for 10 mins followed by NADPH addition and further incubated upto 60 mins by LC-MS/MS analysis; type: ADME, Microsome; settings: time <=70 min, read-out: CLH
# [19] = Toxicity in NOD/SCID mouse xenografted with human MOLM-13 cells assessed as abnormal changes in heart at 5 to 10 mg/kg, ip daily for 2 weeks by hematoxylin-eosin staining based histological analysis; type: organism-based; settings: in vivo, 336 h, dose 5-10 mg/kg
# [20] = Half life in Sprague Dawley rat at 10 mg/kg, ip measured after 24 hrs; type: ADME, organism-based; settings: in vivo
# [21] = molecular target: T1, MAP kinase-interacting serine/threonine-protein kinase 1; assay: Inhibition of MKN1 (unknown origin) at 1 uM in presence of ATP by HTRF assay
# MOLM-13 [22] = assay: Downregulation of cyclin-D1 levels in human MOLM-13 cells at 1 to 2 uM incubated for 12 hrs by western blot analysis; type: functional, cell-based; settings: dose 1-2 µM
# [23] = Tmax in Sprague Dawley rat at 10 mg/kg, ip measured after 24 hrs; type: ADME, organism-based; settings: in vivo
# [24] = AUC (0 to infinity) in Sprague Dawley rat at 2 mg/kg, iv measured after 24 hrs; type: ADME, organism-based; parameters: route intravenous, time 24 hrs, dose 2 mg/kg; settings: in vivo
# [25] = molecular target: T1, MAP kinase-interacting serine/threonine-protein kinase 1; assay: Inhibition of MKN1 (unknown origin) in presence of ATP by HTRF assay
# [26] = Oral bioavailability in Sprague Dawley rat at 10 mg/kg measured after 24 hrs; type: ADME, organism-based; settings: in vivo
# MOLM-13 [27] = assay: Induction of apoptosis in human MOLM-13 cells assessed as early apoptotic cells at 2 uM incubated for 12 hrs by annexin-V and propidium iodide staining based flow cytometry analysis (reference value: 5.40%); type: functional
# MOLM-13 [28] = assay: Downregulation of mcl-1 levels in human MOLM-13 cells at 1 to 2 uM incubated for 12 hrs by western blot analysis; type: functional, cell-based; settings: dose 1-2 µM
# MOLM-13 [29] = assay: Antitumor activity against human MOLM-13 cells xenografted in NOD/SCID mouse assessed as decrease in 4EBP1 phosphorylation at 5 to 10 mg/kg, ip daily for 2 weeks by western blot analysis; type: functional, organism-based; settings: dose 5-10 mg/kg
# MOLM-13 [30] = assay: Induction of cell cycle arrest in human MOLM-13 cells assessed as sub-G1 phase at 1 uM incubated for 12 hr by propidium iodide based flow cytometry analysis (Rvb= 4.78%); type: functional
# [31] = AUC (0 to t) in Sprague Dawley rat at 10 mg/kg, po measured after 24 hrs; type: ADME, organism-based; parameters: route oral, dose 10 mg/kg, time 24 hrs; settings: in vivo
# [32] = AUC (0 to t) in Sprague Dawley rat at 10 mg/kg, ip measured after 24 hrs; type: ADME, organism-based; parameters: route intraperitoneal, time 24 hrs, dose 10 mg/kg; settings: in vivo
# [33] = molecular target: Serine/threonine-protein kinase B-raf (Homo sapiens, UniProt P15056); assay: Inhibition of wild-type human partial length BRAF (S429 to E741 residues) expressed in mammalian expression system at 1 uM by Kinomescan method relative to control
# [34] = Bioavailability in Sprague Dawley rat at 10 mg/kg, ip measured after 24 hrs; type: ADME, organism-based; settings: in vivo
# [35] = Toxicity in NOD/SCID mouse xenografted with human MOLM-13 cells assessed as abnormal changes in liver at 5 to 10 mg/kg, ip daily for 2 weeks by hematoxylin-eosin staining based histological analysis; type: organism-based; settings: in vivo, 336 h, dose 5-10 mg/kg
# HL-60 = assay: Antiproliferative activity against human HL-60 cells assessed as reduction of cell viability incubated for 72 hrs by trypan blue staining based cell counting analysis; type: functional
structure (smiles),measurement,setting,value
CC(C)Oc1cc(F)ccc1Nc1ncnc2ccc(-c3ccc(C(=O)N4CCNCC4)cc3)nc12,Activity,[1],Non-Toxic
same,IC50,[2],774 nM
same,Activity,[3],Non-Toxic
same,Activity,MOLM-13 [4],8.2%
same,Activity,MOLM-13 [5],2.97%
same,inhibition,[6],100%
same,Tmax,[7],8 h
same,inhibition,[8],Active
same,AUC(0-t) at 24 h,[9],1610 ng·h/mL
same,IC50,[10],43 nM
same,inhibition,[11],96%
same,IC50,[12],7 nM
same,inhibition,[13],Active
same,IC50,[14],1970 nM
same,Activity,MOLM-13 [15],Active
same,inhibition,[16],60%
same,half-life,[17],6.71 h
same,CLint scaled,[18],8.53 mL/min/kg
same,Activity,[19],Non-Toxic
same,half-life,[20],4.4 h
same,inhibition,[21],97%
same,Activity,MOLM-13 [22],Active
same,Tmax,[23],0.67 h
same,AUC(0-inf),[24],1720 ng·h/mL
same,IC50,[25],1 nM
same,bioavailability,[26],35.5%
same,Activity,MOLM-13 [27],29.57%
same,Activity,MOLM-13 [28],Active
same,Activity,MOLM-13 [29],Active
same,Activity,MOLM-13 [30],11.81%
same,AUC(0-t) at 24 h,[31],2850 ng·h/mL
same,AUC(0-t) at 24 h,[32],1660 ng·h/mL
same,inhibition,[33],87%
same,bioavailability,[34],20.6%
same,Activity,[35],Non-Toxic
same,GI50,HL-60,1500 nM
